This is an account of results in ChEMBL document CHEMBL3045235, “Synthesis of aspirin eugenol ester and its biological activity” (Med Chem Res, 2012).

The subject of series [1] is Mus musculus. The series is described as follows: Anti-inflammatory activity against xylene-induced ear swelling Mus musculus (mouse) model as suppression of ear swelling at 1.11 mmol/kg, ig measured 1 hr after xylene challenge. The format is functional. The settings on record: po.
In series [2] the test system is Rattus norvegicus. The series is described as follows: Antipyretic activity against yeast-induced hyperthermia in Rattus norvegicus (rat) assessed as change in body temperature at 1.5 mmol/kg after 4 hr. The format is functional, organism-based.
Series [3] is described as follows: Toxicity in ig dosed Mus musculus (mouse). The format is organism-based. Conditions: in vivo, po.
Series [4] deals with Rattus norvegicus. Nature of the series: Antipyretic activity against yeast-induced hyperthermia in Rattus norvegicus (rat) assessed as change in body temperature at 1.5 mmol/kg after 2 hr. The format is functional, organism-based.
Series [5] deals with Rattus norvegicus. The series is described as follows: Antipyretic activity against yeast-induced hyperthermia in Rattus norvegicus (rat) assessed as change in body temperature at 1.5 mmol/kg after 6 hr. The format is functional, organism-based.
For series [6], the system named is Mus musculus. Nature of the series: Anti-inflammatory activity against xylene-induced ear swelling Mus musculus (mouse) model as suppression of ear swelling at 0.56 mmol/kg, ig measured 1 hr after xylene challenge. The format is functional. The settings on record: po.
Series [7] relates to Rattus norvegicus. Nature of the series: Antipyretic activity against yeast-induced hyperthermia in Rattus norvegicus (rat) assessed as change in body temperature at 2 mmol/kg after 2 hr. The format is functional, organism-based.
Series [8] has as its system Mus musculus. Nature of the series: Analgesic activity in Mus musculus (mouse) assessed as pain threshold at 1.1 mmol/kg, ig after 60 min by hot plate test (reference value: 21.28 +/- 3 sec). The format is functional.
The subject of series [9] is Mus musculus. The series is described as follows: Toxicity in ig dosed Mus musculus (mouse) assessed as effect on liver after 7 days. The format is organism-based. The settings on record: in vivo, po, 168 h.
The test system of series [10] is Mus musculus. Nature of the series: Toxicity in ig dosed Mus musculus (mouse) assessed as effect on kidney after 7 days. The settings on record: in vivo, po, 168 h. The format is organism-based.
Series [11] relates to Mus musculus. The series is described as follows: Toxicity in ig dosed Mus musculus (mouse) assessed as effect on heart after 7 days. The format is organism-based. Conditions: in vivo, po, 168 h.
The test system of series [12] is Rattus norvegicus. The series is described as follows: Antipyretic activity against yeast-induced hyperthermia in Rattus norvegicus (rat) assessed as change in body temperature at 1 mmol/kg after 6 hr. The format is functional, organism-based.
Series [13] relates to Mus musculus. The series is described as follows: Toxicity in ig dosed Mus musculus (mouse) assessed as mortality within 24 hr. Conditions: in vivo, po. The format is organism-based.
Series [14] has as its system Mus musculus. Nature of the series: Analgesic activity in Mus musculus (mouse) assessed as pain threshold at 0.56 mmol/kg, ig after 180 min by hot plate test (reference value: 17.67 +/- 5.78 sec). The format is functional.
For series [15], the system named is Mus musculus. Nature of the series: Analgesic activity in Mus musculus (mouse) assessed as pain threshold at 0.56 mmol/kg, ig after 120 min by hot plate test (reference value: 19.06 +/- 4.55 sec). The format is functional.
The subject of series [16] is Rattus norvegicus. The series is described as follows: Antipyretic activity against yeast-induced hyperthermia in Rattus norvegicus (rat) assessed as change in body temperature at 2 mmol/kg after 4 hr. The format is functional, organism-based.
In series [17] the test system is Mus musculus. The series is described as follows: Analgesic activity in Mus musculus (mouse) assessed as pain threshold at 1.1 mmol/kg, ig after 120 min by hot plate test (reference value: 19.06 +/- 4.55 sec). The format is functional.
The test system of series [18] is Mus musculus. Nature of the series: Toxicity in ig dosed Mus musculus (mouse) assessed as effect on heart measured post autopsy. The format is organism-based. Conditions: in vivo, po.
In series [19] the test system is Mus musculus. Nature of the series: Analgesic activity in Mus musculus (mouse) assessed as pain threshold at 0.56 mmol/kg, ig after 30 min by hot plate test (reference value: 24.88 +/- 5.28 sec). The format is functional.
The subject of series [20] is Mus musculus. The series is described as follows: Toxicity in ig dosed Mus musculus (mouse) assessed as effect on spleen after 7 days. The settings on record: in vivo, po, 168 h. The format is organism-based.
In series [21] the test system is Mus musculus. Nature of the series: Toxicity in ig dosed Mus musculus (mouse) assessed as effect on liver measured post autopsy. The format is organism-based. The settings on record: in vivo, po.
The test system of series [22] is Mus musculus. The series is described as follows: Toxicity in ig dosed Mus musculus (mouse) assessed as effect on kidney measured post autopsy. The format is organism-based. The settings on record: in vivo, po.
For series [23], the system named is Mus musculus. The series is described as follows: Analgesic activity in Mus musculus (mouse) assessed as pain threshold at 0.56 mmol/kg, ig after 60 min by hot plate test (reference value: 21.28 +/- 3 sec). The format is functional.
In series [24] the test system is Rattus norvegicus. The series is described as follows: Antipyretic activity against yeast-induced hyperthermia in Rattus norvegicus (rat) assessed as change in body temperature at 2 mmol/kg after 6 hr. The format is functional, organism-based.
The test system of series [25] is Rattus norvegicus. Nature of the series: Antipyretic activity against yeast-induced hyperthermia in Rattus norvegicus (rat) assessed as change in body temperature at 1 mmol/kg after 4 hr. The format is functional, organism-based.
In series [26] the test system is Rattus norvegicus. Nature of the series: Antipyretic activity against yeast-induced hyperthermia in Rattus norvegicus (rat) assessed as change in body temperature at 1 mmol/kg after 2 hr. The format is functional, organism-based.
Series [27] has as its system Mus musculus. The series is described as follows: Analgesic activity in Mus musculus (mouse) assessed as pain threshold at 1.1 mmol/kg, ig after 180 min by hot plate test (reference value: 17.67 +/- 5.78 sec). The format is functional.
The subject of series [28] is Mus musculus. The series is described as follows: Toxicity in ig dosed Mus musculus (mouse) assessed as effect on spleen measured post autopsy. The format is organism-based. Conditions: in vivo, po.
The test system of series [29] is Mus musculus. The series is described as follows: Analgesic activity in Mus musculus (mouse) assessed as pain threshold at 1.1 mmol/kg, ig after 30 min by hot plate test (reference value: 24.88 +/- 5.28 sec). The format is functional.

SMILES strings stand for the structures.

With `CC(=O)Oc1ccccc1C(=O)O` [ASPIRIN], in the series with Mus musculus [1], the inhibition in vivo at 1110 µmol/kg was found to be 45.2%. Moreover, the deltaT in the series on Rattus norvegicus [2] was -1.8 °C; with Rattus norvegicus [4], -2.19 °C; in the series with Rattus norvegicus [5] it was -1.78 °C. For the same molecule, the LD50 in series [3] is 250 mg/kg.
The molecule `C=CCc1ccc(OC(=O)c2ccccc2OC(C)=O)c(OC)c1` [ASPIRIN EUGENOL ESTER] gave an inhibition in vivo at 560 µmol/kg in the series on Mus musculus [6] of 44.8%. Moreover, the inhibition in vivo at 1110 µmol/kg in the series on Mus musculus [1] came to 45.9%. The deltaT in the series on Rattus norvegicus [7] is -2.09 °C; with Rattus norvegicus [2], -1.4 °C; with Rattus norvegicus [12], -1.32 °C; in the series on Rattus norvegicus [16], -2.46 °C; in the series on Rattus norvegicus [4] it was -1.14 °C; with Rattus norvegicus [24] it was -2.49 °C. In addition, the deltaT with Rattus norvegicus [25] was -1.29 °C; in the series with Rattus norvegicus [5], -1.45 °C; in the series on Rattus norvegicus [26] it was -1.2 °C. Also, the Time turned out to be 28.8 s with Mus musculus [8]; 29.13 s in the series with Mus musculus [14]; 26.85 s in the series with Mus musculus [15]; 28.74 s with Mus musculus [17]; 24.45 s in the series with Mus musculus [19]; 28.81 s with Mus musculus [23]. Besides, the Time in the series on Mus musculus [27] is recorded as 29.69 s; in the series with Mus musculus [29], 29.5 s. Moreover, the Activity entry in the series with Mus musculus [9] is given as “Non-toxic”; in the series with Mus musculus [10], “Non-toxic”; with Mus musculus [11] it was “Non-toxic”; in the series with Mus musculus [13], “Toxic”; in the series with Mus musculus [18], “Non-toxic”; with Mus musculus [20], “Non-toxic”. Further, the Activity entry with Mus musculus [21], in the series on Mus musculus [22] and in the series on Mus musculus [28] was “Non-toxic” throughout. The LD50 in series [3] is 10900 mg/kg.
For `C=CCc1ccc(O)c(OC)c1` [EUGENOL], the inhibition in vivo at 1110 µmol/kg in the series with Mus musculus [1] came to 32.9%. Moreover, the Time in the series with Mus musculus [8] came to 28.01 s; in the series on Mus musculus [17] it was 24.86 s; in the series on Mus musculus [27], 25.5 s; with Mus musculus [29], 30.76 s. Further, the deltaT in the series on Rattus norvegicus [2] was -1.11 °C; with Rattus norvegicus [4], -0.94 °C; with Rattus norvegicus [5] it was -1.21 °C. Also, the LD50 in series [3] turned out to be 3000 mg/kg.
